Values after ≈ are worked out from the molar mass of the structure shown.
What was measured:
[1] = system: E. coli ATCC 25922; assay: MIC/MBC broth microdilution, E. coli; format: cell-based, Escherichia coli
How it was run: (§1)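 Standard NCCLS broth microdilution in BHI broth, inoculum approx. 10^5 CFU/mL, serially diluted peptidomimetics, 18 h at 37 °C. MIC was the lowest concentration with no obvious growth (≥90% inhibition versus untreated); MBC was the lowest giving ≤3 colonies on subculture (≥99.9% kill).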

[2] = system: S. mutans c.i.; assay: MIC/MBC broth microdilution, S. mutans; format: cell-based, Streptococcus mutans
How it was run: as §1

[3] = system: S. schleiferi c.i.; assay: MIC/MBC broth microdilution, S. schleiferi; format: cell-based, Staphylococcus schleiferi
How it was run: as §1

[4] = system: K. pneumoniae ATCC 700603; assay: MIC/MBC broth microdilution, K. pneumoniae; format: cell-based
How it was run: as §1

[5] = system: human dermal fibroblast cell line (46BR.1N); assay: XTT cell proliferation assay, fibroblasts; format: cell-based; conditions: for effect on proliferation, in words: 48 and 72 h, 0.01–150 μg/mL
How it was run: (§2)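 Cells at 37 °C, 5% CO2 received peptidomimetics in serum-free HG-DMEM for 48 or 72 h; for 72 h, half the medium was renewed and peptide re-added at 48 h. XTT reagent was then incubated 4 h and absorbance read at 490 nm; Mann–Whitney U test, p ≤ 0.05.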

[6] = system: P. vulgaris ATCC 6896; assay: MIC/MBC broth microdilution, P. vulgaris; format: cell-based, Proteus vulgaris
How it was run: as §1

[7] = system: P. aeruginosa ATCC 10145; assay: MIC/MBC broth microdilution, P. aeruginosa; format: cell-based
How it was run: as §1

[8] = system: E. faecalis c.i.; assay: MIC/MBC broth microdilution, E. faecalis; format: cell-based, Enterococcus faecalis
How it was run: as §1

[9] = Hydrophobicity by reverse-phase chromatography; format: physicochemical; conditions: acetonitrile content in the mobile phase at the retention time
Excerpt: Reverse-phase chromatography was employed to assess the hydrophobicity characteristics of the peptidomimetics. Hydrophobicity was quantified by determining the acetonitrile content in the mobile phase at the retention time of a peptidyl derivative (Table S2). The least hydrophobic compound (40% acetonitrile) was A-198, which aligns with the calculations of hydrophobicity by SwissADME and pkCSM (Table ). Next in the hydrophobicity sequence were A-197, A-220, A-219, A-174, and A-221, eluting with 42.5-43.9% of acetonitrile. Then there were followed by […], and A-179, with the acetonitrile percentage of 44.8-49.8. The compounds A-176, A-20, A-152, A-134, and A-210 needed over 50% of acetonitrile to be eluted from the column.

[10] = system: immortalized human HaCaT keratinocytes; assay: XTT cell proliferation assay, keratinocytes; format: cell-based; conditions: for effect on proliferation, in words: 48 and 72 h, 0.01–150 μg/mL
How it was run: as §2

[11] = system: fibroblasts (46BR.1N); assay: LDH cytotoxicity test, fibroblasts; format: cell-based; conditions: 48 h
How it was run: (§3)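 HaCaT keratinocytes and 46BR.1N fibroblasts, 5000 cells per well, grown 24 h, then exposed to peptidomimetics at 50, 100 and 150 μg/mL in serum-free medium for 48 h. LDH release in supernatant read at 450 nm, normalized to untreated (0%) and 1% Triton X-100 (maximal) controls.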

[12] = system: S. intemrdius c.i.; assay: MIC/MBC broth microdilution, S. intermedius; format: cell-based, Staphylococcus intermedius
How it was run: as §1

[13] = system: immortalized human keratinocytes (HaCaT); assay: LDH cytotoxicity test, keratinocytes; format: cell-based; conditions: 48 h
How it was run: as §3

[14] = system: S. pyogenes ATCC 19615; assay: MIC/MBC broth microdilution, S. pyogenes; format: cell-based, Streptococcus pyogenes; conditions: S. pyogenes
How it was run: as §1

[15] = system: S. aureus ATCC 43300; assay: MIC/MBC broth microdilution, S. aureus; format: cell-based, Staphylococcus aureus; conditions: S. aureus
[16] = system: S. agalactiae ATCC 27956; assay: MIC/MBC broth microdilution, S. agalactiae; format: cell-based, Streptococcus agalactiae; conditions: S. agalactiae
How it was run: as §1

[17] = system: S. cohnii c.i.; assay: MIC/MBC broth microdilution, S. cohnii; format: cell-based, Staphylococcus cohnii
How it was run: as §1

[18] = A-196 0.01–10 μg/mL, A-219 above 0.1 μg/mL, A-213 lower concentrations

CC[C@@H](CNC(=O)/C=C/c1ccccc1)NC(=O)[C@H](CC(C)C)NC(=O)[C@H](CCCNC(=N)N)NC(=O)OCc1ccccc1 [Compound A-213]
MBC ([1]; H2O): 256 µg/mL (≈ 412 µM) | MIC ([1]; H2O): 256 µg/mL (≈ 412 µM) | MBC ([1]; water additive DMSO): 512 µg/mL (≈ 823 µM) | MIC ([1]; water additive DMSO): 256 µg/mL (≈ 412 µM) | MBC ([1]; water additive EtOH): 256 µg/mL (≈ 412 µM) | MIC ([1]; water additive EtOH): 256 µg/mL (≈ 412 µM) | MBC ([2]; H2O): 8 µg/mL (≈ 12.9 µM) | MIC ([2]; H2O): 4 µg/mL (≈ 6.43 µM) | MBC ([2]; water additive DMSO): 8 µg/mL (≈ 12.9 µM) | MIC ([2]; water additive DMSO): 4 µg/mL (≈ 6.43 µM) | MBC ([2]; water additive EtOH): 8 µg/mL (≈ 12.9 µM) | MIC ([2]; water additive EtOH): 4 µg/mL (≈ 6.43 µM) | MBC ([3]; H2O): 32 µg/mL (≈ 51.5 µM) | MIC ([3]; H2O): 32 µg/mL (≈ 51.5 µM) | MBC ([3]; water additive DMSO): 32 µg/mL (≈ 51.5 µM) | MIC ([3]; water additive DMSO): 16 µg/mL (≈ 25.7 µM) | MBC ([3]; water additive EtOH): 32 µg/mL (≈ 51.5 µM) | MIC ([3]; water additive EtOH): 32 µg/mL (≈ 51.5 µM) | MIC ([4]; H2O): > 512 µg/mL | MIC ([4]; water additive DMSO): 512 µg/mL (≈ 823 µM) | MIC ([4]; water additive EtOH): 512 µg/mL (≈ 823 µM) | pro-proliferative effect above control [5, 18]: 20–30% | proliferation relative to control at 150 μg/mL (highest tested concentration) ([5]; XTT, 150 μg/mL): around 25% | effect on proliferation, in words ([5]; XTT): pro-proliferating effect at lower concentrations followed by an antiproliferative effect at higher concentrations | MIC ([6]; H2O): > 512 µg/mL | MIC ([6]; water additive DMSO): > 512 µg/mL | MIC ([6]; water additive EtOH): > 512 µg/mL | MIC ([7]; H2O): 512 µg/mL (≈ 823 µM) | MBC ([7]; water additive DMSO): 512 µg/mL (≈ 823 µM) | MIC ([7]; water additive DMSO): 256 µg/mL (≈ 412 µM) | MBC ([7]; water additive EtOH): 256 µg/mL (≈ 412 µM) | MIC ([7]; water additive EtOH): 256 µg/mL (≈ 412 µM) | MBC ([8]; H2O): 256 µg/mL (≈ 412 µM) | MIC ([8]; H2O): 256 µg/mL (≈ 412 µM) | MBC ([8]; water additive DMSO): 256 µg/mL (≈ 412 µM) | MIC ([8]; water additive DMSO): 256 µg/mL (≈ 412 µM) | MBC ([8]; water additive EtOH): 256 µg/mL (≈ 412 µM) | MIC ([8]; water additive EtOH): 256 µg/mL (≈ 412 µM) | % AcCN (acetonitrile required for elution from the column) [9]: 54.6% | pro-proliferative effect above control [10, 18]: 20–30% | proliferation relative to control at 150 μg/mL (highest tested concentration) ([10]; XTT, 150 μg/mL): around 25% | effect on proliferation, in words ([10]; XTT): pro-proliferating effect at lower concentrations followed by an antiproliferative effect at higher concentrations | cytotoxicity (LDH) at 150 μg/mL ([11]; 150 μg/mL): ~10% | MIC ([12]; H2O): 32 µg/mL (≈ 51.5 µM) | MIC ([12]; water additive DMSO): 32 µg/mL (≈ 51.5 µM) | MIC ([12]; water additive EtOH): 32 µg/mL (≈ 51.5 µM) | cytotoxicity (LDH) at 150 μg/mL ([13]; 150 μg/mL): ~10%

CC(C)[C@@H](CNC(=O)/C=C/c1ccccc1)NC(=O)[C@H](Cc1c[nH]cn1)NC(=O)[C@H](CCCCN)NC(=O)OCc1ccccc1 [Compound A-174]
MIC ([1]; H2O): > 512 µg/mL | MIC ([1]; water additive DMSO): > 512 µg/mL | MIC ([1]; water additive EtOH): > 512 µg/mL | MIC ([2]; H2O): > 512 µg/mL | MIC ([2]; water additive DMSO): > 512 µg/mL | MIC ([2]; water additive EtOH): > 512 µg/mL | MBC ([14]; H2O): 256 µg/mL (≈ 405 µM) | MBC ([14]; water additive DMSO): 256 µg/mL (≈ 405 µM) | MBC ([14]; water additive EtOH): 256 µg/mL (≈ 405 µM) | MBC ([15]; H2O): 512 µg/mL (≈ 810 µM) | MIC ([15]; H2O): 256 µg/mL (≈ 405 µM) | MBC ([15]; water additive DMSO): 512 µg/mL (≈ 810 µM) | MIC ([15]; water additive DMSO): 512 µg/mL (≈ 810 µM) | MBC ([15]; water additive EtOH): 512 µg/mL (≈ 810 µM) | MIC ([15]; water additive EtOH): 512 µg/mL (≈ 810 µM) | MIC ([3]; H2O): > 512 µg/mL | MIC ([3]; water additive DMSO): > 512 µg/mL | MBC ([3]; water additive EtOH): 512 µg/mL (≈ 810 µM) | MIC ([3]; water additive EtOH): 512 µg/mL (≈ 810 µM) | MIC ([4]; H2O): > 512 µg/mL | MIC ([4]; water additive DMSO): > 512 µg/mL | MIC ([4]; water additive EtOH): > 512 µg/mL | effect on proliferation, in words ([5]; XTT): did not exert any negative impact | MIC ([6]; H2O): > 512 µg/mL | MIC ([6]; water additive DMSO): > 512 µg/mL | MBC ([6]; water additive EtOH): > 512 µg/mL | MIC ([6]; water additive EtOH): 512 µg/mL (≈ 810 µM) | MBC ([16]; H2O): 512 µg/mL (≈ 810 µM) | MIC ([16]; H2O): 512 µg/mL (≈ 810 µM) | MBC ([16]; water additive DMSO): 512 µg/mL (≈ 810 µM) | MIC ([16]; water additive DMSO): 512 µg/mL (≈ 810 µM) | MBC ([16]; water additive EtOH): 512 µg/mL (≈ 810 µM) | MIC ([16]; water additive EtOH): 256 µg/mL (≈ 405 µM) | MIC ([7]; H2O): > 512 µg/mL | MIC ([7]; water additive DMSO): > 512 µg/mL | MBC ([7]; water additive EtOH): > 512 µg/mL | MIC ([7]; water additive EtOH): 512 µg/mL (≈ 810 µM) | MIC ([8]; H2O): > 512 µg/mL | MIC ([8]; water additive DMSO): > 512 µg/mL | MIC ([8]; water additive EtOH): > 512 µg/mL | % AcCN (acetonitrile required for elution from the column) [9]: 42.9% | effect on proliferation, in words ([10]; XTT): did not exert any negative impact | cytotoxicity (LDH), in words ([11]; 50-150 μg/mL): no cytotoxicity | MBC ([17]; H2O): 256 µg/mL (≈ 405 µM) | MIC ([17]; H2O): 256 µg/mL (≈ 405 µM) | MBC ([17]; water additive DMSO): 256 µg/mL (≈ 405 µM) | MBC ([17]; water additive EtOH): 256 µg/mL (≈ 405 µM) | cytotoxicity (LDH), in words ([13]; 50-150 μg/mL): no cytotoxicity
